According to PMC7367283, “A PIP2 substitute mediates voltage sensor-pore coupling in KCNQ activation” (Communications Biology, 2020):
“And” between values parts separate entries of the source, which are not always exact repeats. Equal entries are not always repeated.

What was measured:
Test in all cases: Two-electrode voltage clamp of mutant KCNQ1 in Xenopus oocytes
Assay type in all cases: cell-based
[1] = target: KCNQ1 K358A (Homo sapiens, UniProt P51787, K358A)
Source text: (§1) In a previous study, mutation of residues in the predicted PIP2-binding site reduced KCNQ1 currents. CP1 modifies voltage-dependent activation of KCNQ1 channels by shifting the voltage dependence of channel opening, measured as the voltage dependence of the conductance (G–V) relationship, to more negative voltages (Fig. 1c) among other characteristics (see below). We made mutations to the residues around the CP1-interacting pocket as indicated by molecular docking (Fig. 1b), and examined the effects of the mutations on the CP1-induced shift of the G–V relationship. The mutations of the KCNQ1 residues that interact with CP1 in docking simulations reduced the shift of the G–V relationship (Fig. 1c, d), supporting the interaction of these residues with CP1.
(§2) Complementary DNA (cDNA) encoding human KCNQ1 (UniProtKB/Swiss‐Prot under accession no. P51787), KCNQ2 (O43526), KCNQ3 (O43525), KCNE1 (P15382), Kir1.1 (P48048), hERG (Q12809), KV4.2 (Q63881), NaV1.5 (Q14524), NaV β1 (Q07699), CaV1.2 (Q13936), CaV β1a (Q02641), CaV α2/δ1 (P54289), and HCN4 (Q9Y3Q4) were subcloned into oocyte expression vectors, respectively. Site-directed mutations of the KCNQ1 channel were all produced by overlap extension polymerase chain reaction (PCR) with high-fidelity Pfu polymerase (Stratagene, CA). The presence of the desired mutation was verified by sequencing the PCR-amplified regions. All the primer sequences used in this study are available in Supplementary Table 1. The complementary RNA (cRNA) of all these channels and mutations was transcribed in vitro with the T3, T7, or SP6 polymerase mMessage mMachine kit (Invitrogen, Thermo Fisher Scientific, MO).
(§3) The use of Xenopus laevis to obtain oocytes was approved by the Washington University Animal Studies Committee (protocol #20190030). Oocytes were manually dispersed and digested with collagenase (0.5 mg/ml, Sigma-Aldrich, Saint Louis, MO) to remove the follicle cell layer. Stage V or VI oocytes were selected and injected with cRNAs (9.2 ng) of channel or mutations. Especially, to characterize IKs, a mix of cRNAs at a molar ratio 4:1 (KCNQ1:KCNE1) was injected. For KCNQ2/KCNQ3, the molar ratio was 1:1 (KCNQ2:KCNQ3). For sodium channels, a 3:1 molar ratio (β1:NaV1.5) and for calcium channels a weight ratio 1:1:1 (β1:α2/δ1:CaV1.2) was injected, respectively. Injected oocytes were incubated in ND96 solution containing (in mM) 96 NaCl, 2 KCl, 1.8 CaCl2, 1 MgCl2, and 5 HEPES, pH 7.6, supplemented with 2.5 mM Na pyruvate and 1% penicillin–streptomycin, at 18 °C for 3–7 days before recording.
(§4) The whole-oocyte ionic currents were recorded with a GeneClamp 500B amplifier (Axon Instruments, CA) or iTEV90 amplifier (HEKA, Germany) and then sampled at 1 kHz and low-pass-filtered at 2 kHz. The Patchmaster software (HEKA, Germany) was used to acquire data. The Kir1.1 current was recorded with a high K^+ bath solution containing (in mM) 96 KCl, 4 NaCl, 1 CaCl2, 2 MgCl2, and 10 HEPES, pH 7.3–7.4. The HCN4 current was recorded in ND66 solution containing (in mM) 66 NaCl, 32 KCl, 1.8 CaCl2, 1 MgCl2, and 5 HEPES, pH 7.6. All the other potassium channels were recorded in ND96 solution. The currents of CaV1.2 channel were recorded in 40 mM Ba^2+ bath solution containing (in mM) 40 Ba(OH)2, 50 TEA-OH, 2 KOH, and 5 HEPES, adjusted to pH 7.4 with methanesulfonic acid. CP1 (DISODIUM 5-BROMO-2-[9-CHLORO-3-(SULFONATOOXY) NAPHTHO [1,2-B] THIEN-2-YL]-1H-INDOL-3-YL SULFATE, Sigma-Aldrich, MO) and Chromanol 293B (Sigma-Aldrich, MO) were dissolved in bath solutions. All the chemicals were purchased from Sigma-Aldrich. To measure the I–V relations of the Kir1.1 channel, the test voltage was set from −100 to +60 mV for 1 s with 20-mV increments. The test pulses were stepped from a holding potential of 0 mV and then stepped back to 0 mV. The HCN4 currents were recorded by a test pulse between −30 and −140 mV in 10-mV step from a holding potential of −30 mV. […]

[2] = target: KCNQ1 R243A (Homo sapiens, UniProt P51787, R243A); conditions: 10 µM CP1, individual oocytes
Source text: as §1, §2, §3, §4

[3] = target: KCNQ1 K354A (Homo sapiens, UniProt P51787, K354A)
Source text: as §1, §2, §3, §4

- G/Gmax ([1]; 10 µM CP1, 0 mV): 0.9554
- G/Gmax ([1]; 10 µM CP1, 10 mV): 0.9870
- G/Gmax ([1]; 10 µM CP1, 20 mV): 1.0000
- G/Gmax ([1]; 10 µM CP1, -10 mV): 0.8985
- G/Gmax ([1]; 10 µM CP1, -20 mV): 0.8248
- G/Gmax ([1]; 10 µM CP1, -30 mV): 0.7348
- G/Gmax ([1]; 10 µM CP1, -40 mV): 0.6300
- G/Gmax ([1]; 10 µM CP1, -50 mV): 0.5260
- G/Gmax ([1]; 10 µM CP1, -60 mV): 0.4207
- G/Gmax ([1]; 10 µM CP1, -70 mV): 0.3286
- G/Gmax ([1]; 10 µM CP1, -80 mV): 0.2595
- G/Gmax ([1]; 10 µM CP1, -90 mV): 0.1953
- G/Gmax ([1]; 10 µM CP1, -100 mV): 0.1209
- G/Gmax ([1]; 10 µM CP1, -110 mV): 0.0580
- G/Gmax ([1]; 10 µM CP1, -120 mV): 0.0105
- G/Gmax ([3]; 10 µM CP1, -10 mV): 1.0000
- G/Gmax ([3]; 10 µM CP1, -20 mV): 0.9896
- G/Gmax ([3]; 10 µM CP1, -30 mV): 0.9492
- G/Gmax ([3]; 10 µM CP1, -40 mV): 0.8838
- G/Gmax ([3]; 10 µM CP1, -50 mV): 0.7639
- G/Gmax ([3]; 10 µM CP1, -60 mV): 0.6020
- G/Gmax ([3]; 10 µM CP1, -70 mV): 0.4417
- G/Gmax ([3]; 10 µM CP1, -80 mV): 0.3190
- G/Gmax ([3]; 10 µM CP1, -90 mV): 0.2082
- G/Gmax ([3]; 10 µM CP1, -100 mV): 0.1212
- G/Gmax ([3]; 10 µM CP1, -110 mV): 0.0566
- G/Gmax ([3]; 10 µM CP1, -120 mV): 0.0000
Compound: O=S(=O)([O-])Oc1c(-c2sc3c(ccc4cccc(Cl)c43)c2OS(=O)(=O)[O-])[nH]c2ccc(Br)cc12.[Na+].[Na+] [CP1, DISODIUM 5-BROMO-2-[9-CHLORO-3-(SULFONATOOXY) NAPHTHO [1,2-B] THIEN-2-YL]-1H-INDOL-3-YL SULFATE]
- ∆V1/2 ([1]; 10 µM CP1, individual oocytes): 15.3181 mV and 41.4752 mV and 28.1195 mV and 31.8534 mV and 36.2122 mV and 21.5083 mV and 28.8875 mV
- ∆V1/2 [2]: 24.1172 mV and 49.8519 mV and 42.6967 mV and 36.2884 mV and 45.9483 mV and 47.7413 mV
- ∆V1/2 ([3]; 10 µM CP1, individual oocytes): 42.6379 mV and 47.4781 mV and 37.0916 mV and 51.9279 mV and 26.7588 mV
